Results from paper PMC5691318 (Journal of the American Chemical Society, 2017).
Where a SMILES comes first, the peptide text is derived from it. [ ]: non-standard residue; d: D form. pS = N[C@@H](COP(=O)(O)O)C(=O)O

Tests used:
[1] = system: 14-3-3ζ/Cdc25CpS216 interaction; assay: ITC: reinforcement of the 14-3-3ζ/Cdc25CpS216 interaction by CLR01; format: binding; conditions: 250 μM or 1.5 mM CLR01 vs no CLR01
[2] = Potentiometric pKa determination; format: physicochemical; conditions: determined potentiometrically
14-3-3/C-Raf peptide = conditions: fluorescence polarization, labeled peptide; ref [31]; cited from earlier work
[3] = system: 14-3-3/Exoenzyme S peptide; conditions: fluorescence polarization, labeled peptide; ref [31]; cited from earlier work
14-3-3ζ = target: T1, 14-3-3ζ (Homo sapiens, UniProt P63104); assay: Isothermal titration calorimetry; format: binding
T1 sequence (P63104 1-230): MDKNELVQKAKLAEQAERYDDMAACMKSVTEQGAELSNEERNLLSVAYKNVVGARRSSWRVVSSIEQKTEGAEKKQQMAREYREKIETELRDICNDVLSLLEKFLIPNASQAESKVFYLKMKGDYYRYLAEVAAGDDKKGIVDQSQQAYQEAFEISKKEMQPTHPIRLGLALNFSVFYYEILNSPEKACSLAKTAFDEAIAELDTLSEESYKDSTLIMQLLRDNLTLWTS
T1 sequence (P30307 207-244 partner): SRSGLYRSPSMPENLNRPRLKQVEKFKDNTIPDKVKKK

[4] = system: 14-3-3 proteins with the potassium channel TASK3; conditions: ref [47]; cited from earlier work
[5] = system: TASK3 plasma membrane localization; conditions: ref [47]; cited from earlier work
Arf1/Arf1GAP = conditions: ref [48],[49]; cited from earlier work
[6] = system: 14-3-3 with the protein kinase C-Raf; conditions: ref [48]; cited from earlier work
[7] = system: 14-3-3 with the chloride channel CFTR; conditions: ref [18]; cited from earlier work
Cdc25CpS216 peptide [8] = target: T2, Cdc25CpS216 peptide (Homo sapiens, not fully specified; phosphoSer216, 1.5 mM CLR01); assay: ITC
T2 chain: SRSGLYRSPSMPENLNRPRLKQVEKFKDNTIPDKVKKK

Cdc25CpS216 peptide [9] = target: T3, Cdc25CpS216 peptide (Homo sapiens, not fully specified; phosphoSer216, 250 μM CLR01); assay: ITC
T3 chain: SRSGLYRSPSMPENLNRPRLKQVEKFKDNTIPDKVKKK

Cdc25CpS216 peptide [10] = target: T4, Cdc25CpS216 peptide (Homo sapiens, not fully specified; phosphoSer216); assay: ITC
T4 chain: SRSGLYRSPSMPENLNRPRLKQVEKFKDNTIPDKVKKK

## O=P(O)(O)Oc1c2c(c(OP(=O)(O)O)c3c1C1CC3c3cc4c(cc31)C1CC4c3ccccc31)C1CC2c2cc3c(cc21)C1CC3c2ccccc21 [CLR01]
[1]
  reinforcement of the 14-3-3ζ/Cdc25CpS216 interaction: 2–3 fold
[2]
  second pKa value of the hydrogen phosphate group: 7.4
14-3-3/C-Raf peptide
  effect on binding of C-Raf-derived peptide to 14-3-3: inhibited
[3]
  effect on binding of Exoenzyme S-derived peptide to 14-3-3: inhibited

## CC[C@H](C)[C@H](NC(=O)[C@@H](NC(=O)[C@H](CC(N)=O)NC(=O)[C@H](CC(=O)O)NC(=O)[C@H](CCCCN)NC(=O)[C@H](Cc1ccccc1)NC(=O)[C@H](CCCCN)NC(=O)[C@H](CCC(=O)O)NC(=O)[C@@H](NC(=O)[C@H](CCC(N)=O)NC(=O)[C@H](CCCCN)NC(=O)[C@H](CC(C)C)NC(=O)[C@H](CCCNC(=N)N)NC(=O)[C@@H]1CCCN1C(=O)[C@H](CCCNC(=N)N)NC(=O)[C@H](CC(N)=O)NC(=O)[C@H](CC(C)C)NC(=O)[C@H](CC(N)=O)NC(=O)[C@H](CCC(=O)O)NC(=O)[C@@H]1CCCN1C(=O)[C@H](CCSC)NC(=O)[C@H](COP(=O)(O)O)NC(=O)[C@@H]1CCCN1C(=O)[C@H](CO)NC(=O)[C@H](CCCNC(=N)N)NC(=O)[C@H](Cc1ccc(O)cc1)NC(=O)[C@H](CC(C)C)NC(=O)CNC(=O)[C@H](CO)NC(=O)[C@H](CCCNC(=N)N)NC(=O)[C@@H](N)CO)C(C)C)[C@@H](C)O)C(=O)N1CCC[C@H]1C(=O)N[C@@H](CC(=O)O)C(=O)N[C@@H](CCCCN)C(=O)N[C@H](C(=O)N[C@@H](CCCCN)C(=O)N[C@@H](CCCCN)C(=O)N[C@@H](CCCCN)C(=O)O)C(C)C [Cdc25CpS216] (H-SRSGLYRSP[pS]MPENLNRPRLKQVEKFKDNTIPDKVKKK-OH)
14-3-3ζ
  Kd: 5.16 µM

## COCC1CCC2C1=CC1(C)C(=C(C(C)C)C3CCOC31)C(OC1OC3COC(C)(C)OC3C(O)C1O)C(O)C2C (stereo not shown) [FC-THF]
[4]
  stabilization of the interaction of 14-3-3 proteins with TASK3: around 19 fold
[5]
  increase in plasma membrane localization: 50%

## C[C@H]1CCC/C=C/[C@@H]2C[C@H](O)C[C@H]2[C@H](O)/C=C/C(=O)O1 [brefeldin A]
Arf1/Arf1GAP
  stabilization factor of target protein complex Arf1/Arf1GAP: 10

## COCC1O[C@H](O[C@@H]2C3=C(C(C)C)CC[C@]3(C)/C=C3\[C@@H](CC[C@]3(O)COC)[C@@H](C)[C@H]2O)C(O)C2OC3O[C@]12O[C@@]3(C)C1CO1 (stereo partly shown) [cotylenin A]
[6]
  stabilization factor of 14-3-3 binding with C-Raf: 17

## C=CC(C)(C)OC[C@H]1O[C@H](O[C@@H]2C3=C([C@H](C)COC(C)=O)C[C@H](O)[C@]3(C)/C=C3/[C@@H](COC)CC[C@H]3[C@@H](C)[C@H]2O)[C@H](O)[C@@H](OC(C)=O)[C@@H]1O [fusicoccin]
[7]
  stabilization factor of 14-3-3 binding with CFTR: 9

B1: 14-3-3ζ (protein)
chain: MDKNELVQKAKLAEQAERYDDMAACMKSVTEQGAELSNEERNLLSVAYKNVVGARRSSWRVVSSIEQKTEGAEKKQQMAREYREKIETELRDICNDVLSLLEKFLIPNASQAESKVFYLKMKGDYYRYLAEVAAGDDKKGIVDQSQQAYQEAFEISKKEMQPTHPIRLGLALNFSVFYYEILNSPEKACSLAKTAFDEAIAELDTLSEESYKDSTLIMQLLRDNLTLWTSDTQGDEAEAGEGGEN
Cdc25CpS216 peptide [8]
  Kd: 2.06 µM
Cdc25CpS216 peptide [9]
  Kd: 2.75 µM
Cdc25CpS216 peptide [10]
  Kd: 5.16 µM
